Test results as given in patent US11731977B2, “SGC stimulators” (Cyclerion Therapeutics, Inc., priority 2016, dated 2023).

Assays:
[1] = tested on: rats; assay: Inflammatory pain: carrageenan, paw pressure test (Example 13); type: in vivo, rat; settings: Indomethacin 30 mg/kg p.o.
[2] = tested on: rats; assay: Inflammatory pain: kaolin, gait score (Example 13); type: in vivo, rat; settings: Indomethacin 30 mg/kg p.o.
Description: Kaolin. Induction: In rats, unilateral arthritis was induced by an intra-articular injection of a 10% kaolin suspension into the knee joint of the right hind paw under gas anesthesia (3.5% isoflurane/3 L/min). Gait score: The gait score will be evaluated 3 h 30 min after kaolin administration by:
2: intermittent raising of the paw

[3] = tested on: Sprague-Dawley rats, streptozotocin model; assay: Rat model of diabetic neuropathy (STZ model), paw pressure test (Example 14); type: in vivo; settings: Compound I-1 10 mg/kg p.o., gabapentin 100 mg/kg p.o., morphine 4 mg/kg s.c., mean±s.e.m.
[4] = tested on: male Long Evans rats; assay: Novel Object Recognition (NOR) test, MK-801-induced memory disruption (Example 10); type: in vivo, rat; settings: for Recognition Index, Mean: 0 to 3 minute time bin
Excerpt: Objective. To assess the efficacy of compounds of the invention in reversing memory disruption induced by MK-801 using the Novel Object Recognition (NOR) test in male Long Evans rats. The NOR is a test of recognition learning and memory retrieval, which takes advantage of the spontaneous preference of rodents to investigate a novel object compared with a familiar one (Ennaceur and Delacour, 1988). […] The NOR test has been employed extensively to assess the potential cognitive-enhancing properties of novel test compounds. […] In the present study, a memory saving model was used to test the novel compound—MK-801 (Dizocilpine), an uncompetitive antagonist of the NMD A receptor was used to cause deficit of recognition memory. Compounds of the invention were evaluated through its efficacy in reversing memory impairment.
Animals. Adult male Long-Evans rats (275-299 gram at arrival from Envigo, Indianapolis, Ind.) were used in this study. Rats were placed in the experimental rooms and assigned unique identification numbers (tail marks). Rats were housed 2 per cage in polycarbonate cages with filter tops and acclimated for at least 7 days prior to testing. Animal room was maintained in a 12/12 h light/dark cycle (lights on at 07.00 EST), 22±1° C. and relative humidity at approximately 50%. Food and water were provided ad libitum. All animals were examined, handled and weighed prior to the study to assure adequate health and to minimize the non-specific stress associated with testing. Each animal was randomly assigned across the treatment groups. The experiments were conducted during the animal's light cycle phase.
MK-801 (0.1 mg/kg; Sigma-Aldrich) was dissolved in saline and injected IP 15 min prior to NOR training.
Galantamine (1 mg/kg; Tocris) was dissolved in saline and injected IP 15 minutes prior to training.
Compound I-1 (0.01, 0.1, and 1 mg/kg) was oral administrated 60 minutes prior to training. The dose volume was 4 ml/kg
Experimental procedures. NOR test was conducted in an open-field arena (40×40 cm) placed in a sound-attenuated room under dimmed lighting. Each rat was tested separately and care was taken to remove olfactory/taste cues by cleaning the arena and test objects with 70% alcohol between trials and rats. All training and testing trials were video-taped and scored by an observer blind to treatments.
On Days 1 and 2, rats were allowed to freely explore the arena (no objects inside) for a 5-minute habituation period. On Day 3 (training and testing day), rats were administered vehicle (saline), galantamine or compound solutions followed by MK-801 or vehicle (saline). After the pretreatment time, each animal was placed into the test arena in the presence of two identical objects. Each rat was placed in the arena facing the same direction at the same position, and the time spent actively exploring the objects during a 3-minute training period (T1) was recorded. The rat was returned to its home cage following training. NOR test (T2) was conducted 1 hours after T1. Each rat was placed back into the test arena in the presence of one familiar object and one novel object for 5 minutes, and the time spent exploring both objects was recorded during 0-1, 0-3 and 0-5 min time ranges. The presentation order and position of the objects (left/right) in T2 was randomized between rats to prevent bias from order or place preference.
Statistical Analysis. Data of NOR test (T2) were expressed as Recognition Index, which is defined as the ratio of the time spent exploring the novel object over the total time spent exploring both objects (Novel/(Familiar+Novel)×100%) during the test session. Data were analyzed by using one-way ANOVA followed by Fisher's LSD post hoc test on 0-1, 0-3 and 0-5 minute time range separately, with significance set at P<0.05. […] And then statistical outliers that fell above or below two standard deviations from the mean were removed from the final analysis. […]

[5] = tested on: rats; assay: Acute and tonic pain: formalin test, score (Example 13); type: in vivo, rat; settings: Morphine 4 mg/kg s.c.
Description: Formalin Test. 2.5% formalin solution was injected by subplantar route into the right hind paw. Scoring of pain behavior was performed in rats for 36 minutes every 3 minutes according to the following scores:
0=normal behavior of the injected hind limb to support the body
1=slight touching of the injected paw on the floor to lightly support or not support the body
2=total withdrawal of the injected paw
3=licking, biting or shaking of the injected paw

[6] = tested on: rats; assay: Post-operative pain: Brennan model, electronic Von Frey test (Example 13); type: in vivo, rat; settings: Morphine 4 mg/kg s.c.
Excerpt: Surgery: Surgery was done under gas anesthesia (2.5% isoflurane/3 L/min). For all rats, the plantar aspect of the left hind paw was exposed and a 1 cm longitudinal incision was made using a surgical blade, through the skin and fascia of the plantar aspect of the foot, starting 0.5 cm from the proximal edge of the heel and extending toward the toes. The plantaris muscle was elevated and incised longitudinally whereas the insertions remained intact. After hemostasis with gentle pressure, the skin was stitched up with two sutures. After surgery, animals recovered in their cages.
Electronic Von Frey Test: Tactile allodynia was assessed using the electronic Von Frey test 24 h after surgery. […] The apparatus exerted a steady force on the hind paws. […] Each reaction threshold measurement was repeated three times for both hind paws with intervals of approximately 2 to 3 mins.

[7] = tested on: rats; assay: Acute and tonic pain: healthy rats, tail flick test (Example 13); settings: Morphine 4 mg/kg s.c.
Description: Tail Flick Test. A radiant heat was applied on the tail. When the rat felt discomfort, it reacted by a sudden tail movement (tail flick) which automatically stopped the stimulation and the timer for the measurement by the animal reaction time or nociceptive reaction latency (period from the beginning of the stimulation until detection of the response of the animal). A cut-off was previously fixed at 10 sec in order to prevent tissue damage.
(§1) Testing: 120 minutes after treatment. N=4/model/test. Results are expressed for each group as a percentage of activity calculated from the mean value of the vehicle-treated animals and compared to naïve animals, control paw, or cut-off value, depending on the test.

[8] = tested on: rats; assay: Acute and tonic pain: healthy rats, paw pressure test (Example 13); settings: Morphine 4 mg/kg s.c.
Description: Paw Pressure Test. Static mechanical hyperalgesia is measured. This test requires the application of an increasing pressure on the hind paws between a flat surface and a blunt pointer. To evaluate the analgesic action of a compound, one hind paw of the animal was inflamed by an injection or injured by ligation, while the other hind paw was not injured or inflamed. The apparatus exerted a steadily increasing force on the hind paws. The reaction threshold was determined as the pressure (g) required to elicit paw withdrawal and/or vocalization. The animals were gently handled by the experimenter and static mechanical hyperalgesia were assessed two times for both hind paws.
as §1

[9] = D18, 60 min post administration
[10] = D18, 120 min post administration

COc1ccc2c(c1)c(CC(=O)O)c(C)n2C(=O)c1ccc(Cl)cc1 [Indomethacin, reference compound]
% of activity vs. vehicle [1]: 100%
% of activity vs. vehicle [2]: 58%

NCC1(CC(=O)O)CCCCC1 [Gabapentin]
nociceptive threshold (paw pressure test) [3, 9]: 272 ± 6.6 g
nociceptive threshold (paw pressure test) [3, 10]: 302 ± 17.7 g
nociceptive threshold (paw pressure test) ([3]; D21, 120 min after dosing): 274 ± 19.2 g

COc1ccc2c3c1O[C@H]1C[C@@H](O)C=C[C@@]31CCN(C)C2 [Galantamine, reference compound]
Recognition Index, Mean ([4]; Galantamine (1 mg/kg IP) + MK-801): 66.2%

CN1CC[C@]23c4c5ccc(O)c4O[C@H]2[C@@H](O)C=C[C@H]3[C@H]1C5 [Morphine, reference compound]
% of activity vs. vehicle ([5]; Formalin test - score (early phase)): 57%
% of activity vs. vehicle ([5]; Formalin test - score (late phase)): 38%
% of activity vs. vehicle [6]: 88%
nociceptive threshold (paw pressure test) [3, 9]: 420 ± 35 g
nociceptive threshold (paw pressure test) [3, 10]: 317 ± 27.6 g
nociceptive threshold (paw pressure test) ([3]; D21, 120 min after dosing): 283 ± 16.7 g
% of activity vs. vehicle [7]: 66%
% of activity vs. vehicle [8]: 69%

C[C@]12N[C@H](Cc3ccccc31)c1ccccc12 [MK-801, MK-801 (Dizocilpine), reference compound]
Recognition Index, Mean ([4]; Vehicle + MK-801 (0.1 mg/kg IP)): 54.1%
effect on recognition memory (Recognition Index approaching chance level, 50%) ([4]; MK-801 0.1 mg/kg IP, 0-1, 0-3 and 0-5 min): caused a strong memory deficit
